Test results reported in patent publication US20240209004A1, “BORIC ACID DERIVATIVE ACTING AS Beta-LACTAMASE INHIBITOR” (TUOJIE BIOTECH (SHANGHAI) CO., LTD., priority 2021, published 2024).
Converted amounts (≈) assume the structure as drawn. Counter-ions that a name gives are not always drawn. Like-named read-outs stand apart in the source and are kept apart here.

Tests used:
[1] = tested on: Pseudomonas aeruginosa ATCC 27853; assay: CPM MIC for control strain (Test Example 2); assay type: cell-based; settings: ATCC27853; control strain Pseudomonas aeruginosa ATCC 27853 (printed range 0.5~4 μg/mL)
Description: (§1) The biosafety cabinet was sterilized with ultraviolet light for 30 min. Glycerol tubes were taken out of a −80° C. freezer, and streaks were gently formed in the glycerol tubes using inoculating loops. Bacteria were inoculated onto MHIIA solid plates. The plates were incubated overnight in a 37° C. incubator.
(§2) 30 μL of compound stock solution was added to column 1 of a 96-well v-bottom plate, and DMSO was added to columns 2-10. Subsequently, 15 μL was transferred from column 1 to column 2 using a pipette and well mixed gently, and then 15 μL of solution was transferred from column 2 to column 3; the serial dilution process proceeded to column 10 (200×β-lactamase inhibitor working solutions were prepared). The antibiotic was diluted with a corresponding solvent to form a 1.6 mg/mL solution.

[2] = tested on: Escherichia coli ATCC 25922; assay: CPM MIC for control strain (Test Example 2); assay type: cell-based; settings: ATCC25922; control strain Escherichia coli ATCC 25922 (printed range 0.016~0.12 μg/mL)
Description: as §1, §2

[3] = tested on: cefepime-resistant Klebsiella pneumoniae; assay: MIC in combination with cefepime for drug-resistant bacteria (Test Example 2); assay type: cell-based; settings: Klebsiella pneumoniae, read-out: CPM MIC
Description: as §1, §2

[4] = tested on: cefepime-resistant Escherichia coli; assay: as above; assay type: cell-based; settings: Escherichia coli, read-out: CPM MIC
Description: as §1, §2

[5] = tested on: cefepime-resistant Pseudomonas aeruginosa; assay: as above; assay type: cell-based
Description: as §1, §2

[6] = tested on: cefepime-resistant Acinetobacter baumannii; assay: as above; assay type: cell-based; settings: Acinetobacter baumannii, read-out: CPM MIC
Description: as §1, §2

[7] = tested on: cefepime-resistant Klebsiella pneumoniae expressing different types of β-lactamases; assay: microbe, parasite or virus in culture; assay type: cell-based; settings: Klebsiella pneumoniae
Description: as §1
as §2, with “3:” for “3;”

[8] = Single intravenous administration exposure, pharmacokinetics (Test Example 4); assay type: in vivo, ICR mice; settings: ICR, mouse, in vivo, iv
Description: The solutions were prepared on the day of administration and stored at 4° C.
Single intravenous injections were administered to ICR mice, which were grouped as follows. Blood was collected from the saphenous vein or the fundus venous plexus at 0.083 h, 0.25 h, 0.5 h, 1 h, 2 h, 4 h, 6 h and 12 h after administration (about 0.1 mL/time point). A biological analysis method was developed to determine plasma concentrations at different time points, and related pharmacokinetic parameters were calculated.

[9] = tested on: Escherichia coli ARLG-2829 (Urine); assay: MIC of β-lactamase inhibitors in the presence of antibiotic (Test Example 1); assay type: cell-based; settings: in the presence of Cefepime (8 ug/mL)
Description: (§3) • 1) The antibiotics cefepime and biapenem (purchased from MCE Inc.).
as §1
as §2, with “3:” for “3;”, “two antibiotics were” for “antibiotic was”, “with” for “with a”, “solvents” for “solvent”, “form” for “form a”, “solutions.” for “solution.”
(§4) 1 μL of 200×B-lactamase inhibitor solution and 1 μL of 1.6 mg/mL antibiotic were added to a new 96-well round-bottom plate. The plate that had been incubated overnight was taken out of the incubator, and several monoclones were picked into normal saline using an inoculating loop. The bacterial solution was adjusted to a concentration of about 1.0×10^8CFU/mL and diluted 200-fold with medium, and 198 μL of the resulting bacterial solution was added to the test plate. The test plate was incubated in a 37° C.incubator for 18-24 h. The 96-well plate that had been incubated for 20 h was taken out of the incubator. The concentration that prevented visible bacterial growth was defined as the minimum inhibitory concentration.

[10] = tested on: Klebsiella pneumoniae ATCC BAA-1705; assay: as above; assay type: cell-based
Description: as §3, §1
as §2, with “3:” for “3;”, “two antibiotics were” for “antibiotic was”, “with” for “with a”, “solvents” for “solvent”, “form” for “form a”, “solutions.” for “solution.”
as §4

[11] = tested on: Klebsiella pneumoniae ATCC BAA-2472; assay: as above; assay type: cell-based
Description: as §3, §1
as §2, with “3:” for “3;”, “two antibiotics were” for “antibiotic was”, “with” for “with a”, “solvents” for “solvent”, “form” for “form a”, “solutions.” for “solution.”
as §4

[12] = in the presence of Biapenem (8 ug/mL)
[13] = in the presence of Cefepime (8 ug/mL)

## CO/N=C(\C(=O)N[C@@H]1C(=O)N2C(C(=O)[O-])=C(C[N+]3(C)CCCC3)CS[C@H]12)c1csc(N)n1 [CPM, cefepime]
[1]
  MIC: 1 µg/mL (≈ 2.08 µM)
[2]
  MIC: 0.0156 µg/mL (≈ 0.0325 µM)
[3]; strain FDA-CDC AR-BANK#0003
  MIC: > 8 µg/mL
[3]; strain FDA-CDC AR-BANK#0076
  MIC: > 8 µg/mL
[3]; strain FDA-CDC AR-BANK#0080
  MIC: > 8 µg/mL
[3]; strain FDA-CDC AR-BANK#0126
  MIC: > 8 µg/mL
[3]; strain FDA-CDC AR-BANK#0158
  MIC: > 8 µg/mL
[4]; strain FDA-CDC AR-BANK#0055
  MIC: > 8 µg/mL
[4]; strain FDA-CDC AR-BANK#0114
  MIC: > 8 µg/mL
[4]; strain FDA-CDC AR-BANK#0370
  MIC: > 8 µg/mL
[4]; strain FDA-CDC AR-BANK#0371
  MIC: > 8 µg/mL
[5]; strain FDA-CDC AR-BANK#0246, read-out: CPM MIC
  MIC: > 8 µg/mL
[5]; strain FDA-CDC AR-BANK#0439, read-out: CPM MIC
  MIC: > 8 µg/mL
[5]; strain FDA-CDC AR-BANK#0441, read-out: CPM MIC
  MIC: > 8 µg/mL
[5]; strain FDA-CDC AR-BANK#0444, read-out: CPM MIC
  MIC: > 8 µg/mL
[6]; strain FDA-CDC AR-BANK#0033
  MIC: > 8 µg/mL
[6]; strain FDA-CDC AR-BANK#0035
  MIC: > 8 µg/mL
[6]; strain FDA-CDC AR-BANK#0078
  MIC: > 8 µg/mL
[7]; ATCCBAA1705, read-out: MIC, CPM, strain ATCC BAA-1705, KPC-2, TEM, SHV, Class A
  MIC: > 128 µg/mL
[7]; ATCCBAA1705, read-out: MIC, single substance (1-1-Na, QPX7728, CPM), strain ATCC BAA-1705, KPC-2, TEM, SHV, Class A
  MIC: 64 µg/mL (≈ 133 µM)
[7]; ATCCBAA1898, read-out: MIC, CPM, strain ATCC BAA-1898, KPC-2, Class A
  MIC: > 128 µg/mL
[7]; ATCCBAA1898, read-out: MIC, single substance (1-1-Na, QPX7728, CPM), strain ATCC BAA-1898, KPC-2, Class A
  MIC: 64 µg/mL (≈ 133 µM)
[7]; ATCCBAA1899, read-out: MIC, CPM, strain ATCC BAA-1899, KPC-2, Class A
  MIC: > 128 µg/mL
[7]; ATCCBAA1899, read-out: MIC, single substance (1-1-Na, QPX7728, CPM), strain ATCC BAA-1899, KPC-2, Class A
  MIC: 32 µg/mL (≈ 66.6 µM)
[7]; ATCCBAA2343, read-out: MIC, CPM, strain ATCC BAA-2343, KPC, Class A
  MIC: > 128 µg/mL
[7]; ATCCBAA2343, read-out: MIC, single substance (1-1-Na, QPX7728, CPM), strain ATCC BAA-2343, KPC, Class A
  MIC: 128 µg/mL (≈ 266 µM)
[7]; ATCCBAA2470, read-out: MIC, CPM, strain ATCC BAA-2470, NDM-1, Class B
  MIC: > 128 µg/mL
[7]; ATCCBAA2470, read-out: MIC, single substance (1-1-Na, QPX7728, CPM), strain ATCC BAA-2470, NDM-1, Class B
  MIC: > 128 µg/mL
[7]; read-out: MIC, CPM, strain ARLG-1127 (Urine), KPC, KPC-3, TEM, TEM-1, Class A
  MIC: > 128 µg/mL
[7]; read-out: MIC, CPM, strain ARLG-1195, CTM-1 group, SHV, NDM, Class A, B
  MIC: > 128 µg/mL
[7]; read-out: MIC, CPM, strain ARLG-1196, CTM-1 group, SHV, NDM, TEM, Class A, B
  MIC: 128 µg/mL (≈ 266 µM)
[7]; read-out: MIC, single substance (1-1-Na, QPX7728, CPM), strain ARLG-1127 (Urine), KPC, KPC-3, TEM, TEM-1, Class A
  MIC: > 128 µg/mL
[7]; read-out: MIC, single substance (1-1-Na, QPX7728, CPM), strain ARLG-1195, CTM-1 group, SHV, NDM, Class A, B
  MIC: 64 µg/mL (≈ 133 µM)
[7]; read-out: MIC, single substance (1-1-Na, QPX7728, CPM), strain ARLG-1196, CTM-1 group, SHV, NDM, TEM, Class A, B
  MIC: 128 µg/mL (≈ 266 µM)

## O=C(O)c1c(F)ccc2c1OB(O)[C@@H]1C[C@H]21 [QPX7728 disodium salt]
[8]; 10 mg/kg
  AUC(0-inf): 46 µg·h/mL
  AUC(0-t): 44.7 µg·h/mL
  Cmax: 65.8 µg/mL
  Tmax: 4.98 min
  t½z: 2.90 h
[8]; 100 mg/kg
  AUC(0-inf): 300 µg·h/mL
  AUC(0-t): 297 µg·h/mL
  Cmax: 399 µg/mL
  Tmax: 4.98 min
  t½z: 2.1 h

## NCCN[C@H]1CC[C@H](CC(=O)N[C@H]2Cc3cccc(C(=O)O)c3OB2O)CC1 [VNRX-5133]
[9]
  Minimum inhibitory concentration: 2 µg/mL
[10]; [12]
  Minimum inhibitory concentration: ≤0.03125 µg/mL
[10]; [13]
  Minimum inhibitory concentration: 0.25 µg/mL
[11]; [12]
  Minimum inhibitory concentration: 2 µg/mL
[11]; [13]
  Minimum inhibitory concentration: >16 µg/mL

## O=C(O)c1c2c(cc3c1OB(O)C1CC31)OCCO2 (centres unmarked) [Compound 1]
[9]
  Minimum inhibitory concentration: 0.5 µg/mL
[10]; [12]
  Minimum inhibitory concentration: ≤0.03125 µg/mL
[10]; [13]
  Minimum inhibitory concentration: 0.5 µg/mL
[11]; [12]
  Minimum inhibitory concentration: 4 µg/mL
[11]; [13]
  Minimum inhibitory concentration: 16 µg/mL

## O=C(O)c1c2c(cc3c1OB(O)C1CC31)OC(F)(F)O2 (centres unmarked) [Compound 2]
[9]
  Minimum inhibitory concentration: >16 µg/mL
[10]; [12]
  Minimum inhibitory concentration: 1 µg/mL
[10]; [13]
  Minimum inhibitory concentration: >16 µg/mL
[11]; [12]
  Minimum inhibitory concentration: >16 µg/mL
[11]; [13]
  Minimum inhibitory concentration: >16 µg/mL
